The compounds below were run on HBV rcDNA (assay: HepDE19 assay with bDNA quantitation of HBV rcDNA). Settings: HepDE19 cells, Tet-free medium, 7 day-incubation, rcDNA measured by Quantigene 2.0 bDNA assay, top concentration 25 μM; read-out: DE-19 bDNA EC50.
Assay type: cell-based, hepatitis B virus
Procedure, shortened: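 HepDE19 cells (50,000/well) switched to Tet-free medium, then treated 7 days at 37° C with compounds from 25 μM (½-log, 8-point, duplicate; 0.5% DMSO). rcDNA quantified by bDNA with HBV probes; EC50/EC90 by 4-parameter fit. CC50 from CTG ATP on 5,000 cells/well after 4 days.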

Row | SMILES | EC50 [nM]
1 | Cc1c2c(c(C(=O)Nc3ccc(F)c(Cl)c3)n1C)CCC2NC(=O)OCc1ncn(C)n1 (single isomer, unassigned) [Compound 83, (1-Methyl-1H-1,2,4-triazol-3-yl)methyl (1-((3-chloro-4-fluorophenyl)carbamoyl)-2,3-dimethyl-2,4,5,6-tetrahydrocyclopenta[c]pyrrol-4-yl)carbamate] | 3300
2 | C#CCOC(=O)NC1CCc2c1cn(C)c2C(=O)Nc1ccc(F)c(Cl)c1 (single isomer, unassigned) [Compound 101, Prop-2-yn-1-yl (1-((3-chloro-4-fluorophenyl)carbamoyl)-2-methyl-2,4,5,6-tetrahydrocyclopenta[c]pyrrol-4-yl)carbamate] | 1600
3 | Cn1cc2c(c1C(=O)Nc1ccc(F)c(Cl)c1)CCC2NS(=O)(=O)C1CC1 (single isomer, unassigned) [Compound 13, N-(3-Chloro-4-fluorophenyl)-4-(cyclopropanesulfonamido)-2-methyl-2,4,5,6-tetrahydrocyclopenta [c]pyrrole-1-carboxamide] | 6800
4 | CNC(=O)NC1CCc2c1c[nH]c2C(=O)Nc1ccc(F)c(Cl)c1 (single isomer, unassigned) [Compound 10, N-(3-Chloro-4-fluorophenyl)-4-(3-methylureido)-2,4,5,6-tetrahydrocyclopenta[c]pyrrole-1-carboxamide] | 16000
5 | CCn1cc2c(c1C(=O)Nc1ccc(F)c(Cl)c1)CCC2NC(=O)OCc1ncn(C)n1 (single isomer, unassigned) [Compound 20, (1-Methyl-1H-1,2,4-triazol-3-yl)methyl (1-((3-chloro-4-fluorophenyl)carbamoyl)-2-ethyl-2,4,5,6-tetrahydrocyclopenta[c]pyrrol-4-yl)carbamate] | 180
6 | Cn1cc2c(c1C(=O)Nc1ccc(F)c(Cl)c1)CCCCC2N (stereo not shown) [Compound 87, 4-Amino-N-(3-chloro-4-fluorophenyl)-2-methyl-2,4,5,6,7,8-hexahydro cyclohepta[c]pyrrole-1-carboxamide] | 1600
7 | CCn1cc2c(c1C(=O)Nc1ccc(F)c(Cl)c1)CCC2NC(=O)OCc1ccn(C)n1 (single isomer, unassigned) [Compound 27, (1-Methyl-1H-pyrazol-3-yl)methyl (1-((3-chloro-4-fluorophenyl)carbamoyl)-2-ethyl-2,4,5,6-tetrahydrocyclopenta[c]pyrrol-4-yl)carbamate] | 1500
8 | Cn1nnc(COC(=O)NC2CCc3c2cn(C)c3C(=O)Nc2ccc(F)c(Cl)c2)n1 (stereo not shown) [Compound 143, (2-Methyl-1H-tetrazol-5-yl)methyl(1-((3-chloro-4-fluorophenyl)carbamoyl)-2-methyl-2,4,5,6-tetrahydrocyclopenta[c]pyrrol-4-yl)carbamate] | 70
9 | Cn1ncc(COC(=O)NC2CCc3c2cn(C)c3C(=O)Nc2ccc(F)c(Cl)c2)n1 (single isomer, unassigned) [Compound 128, (2-Methyl-2H-1,2,3-triazol-4-yl)methyl (1-((3-chloro-4-fluorophenyl)carbamoyl)-2-methyl-2,4,5,6-tetrahydrocyclopenta[c]pyrrol-4-yl)carbamate] | 1700
10 | Cn1cnc(COC(=O)NC2CCc3c2c(C(F)(F)F)n(C)c3C(=O)Nc2ccc(F)c(Cl)c2)n1 (stereo not shown) [Compound 123] | 8000

Same assay, conditions: Hepatitis B virus, HepDE19, 168 h, HepDE19 cells, Tet-free medium, 7 day-incubation, rcDNA measured by Quantigene 2.0 bDNA assay, top concentration 25 μM; read-out: DE-19 bDNA EC50

Row | SMILES | EC50 [nM]
11 | COC(=O)NC1CCc2c1c[nH]c2C(=O)Nc1ccc(F)c(Cl)c1 (stereo not shown) [Compound 9, methyl 1-(3-chloro-4-fluorophenylcarbamoyl)-2,4,5,6-tetrahydrocyclopenta[c]pyrrol-4-ylcarbamate] | 3000
12 | Cn1cnc(COC(=O)NC2CCc3c2cn(C)c3C(=O)Nc2cc(F)c(F)c(F)c2)n1 (single isomer, unassigned) [Compound 71, (1-methyl-1H-1,2,4-triazol-3-yl)methyl (2-methyl-1-((3,4,5-trifluorophenyl)carbamoyl)-2,4,5,6-tetrahydrocyclopenta[c]pyrrol-4-yl)carbamate] | 180
13 | Cn1cc2c(c1C(=O)Nc1ccc(F)c(Cl)c1)CCC2NC(=O)OCc1ccn(C2CCCCO2)n1 (stereo not shown) [Compound 63, (1-(Tetrahydro-2H-pyran-2-yl)-1H-pyrazol-3-yl)methyl (1-((3-chloro-4-fluorophenyl)carbamoyl)-2-methyl-2,4,5,6-tetrahydrocyclopenta[c]pyrrol-4-yl)carbamate] | 140
14 | Cn1cc2c(c1C(=O)Nc1ccc(F)c(Cl)c1)CCCC2NC(=O)C1CC1 (single isomer, unassigned) [Compound 76, N-(3-chloro-4-fluorophenyl)-4-(cyclopropanecarboxamido)-2-methyl-4,5,6,7-tetrahydro-2H-isoindole-1-carboxamide] | 1000
15 | Cn1cnc(COC(=O)NC2CCCc3c2c(Cl)n(C)c3C(=O)Nc2ccc(F)c(Cl)c2)n1 (single isomer, unassigned) [Compound 94, (1-Methyl-1H-1,2,4-triazol-3-yl)methyl (3-chloro-1-((3-chloro-4-fluorophenyl)carbamoyl)-2-methyl-4,5,6,7-tetrahydro-2H-isoindol-4-yl)carbamate] | 440
16 | Cn1cc2c(c1C(=O)Nc1ccc(F)c(Cl)c1)CCC2NC(=O)OCc1nnnn1C (single isomer, unassigned) [Compound 145, (1-Methyl-1H-tetrazol-5-yl)methyl (1-((3-chloro-4-fluorophenyl)carbamoyl)-2-methyl-2,4,5,6-tetrahydrocyclopenta[c]pyrrol-4-yl)carbamate] | 2700
17 | Cn1cc2c(c1C(=O)Nc1ccc(F)c(Cl)c1)CCC2NC(=O)OCC1(C(=O)O)CC(F)(F)C1 (racemic) [Compound 53, 1-((((1-((3-chloro-4-fluorophenyl)carbamoyl)-2-methyl-2,4,5,6-tetrahydrocyclopenta [c]pyrrol-4-yl)carbamoyl)oxy)methyl)-3,3-difluorocyclobutane-1-carboxylic acid] | 2700
18 | Cc1c2c(c(C(=O)Nc3ccc(F)c(Cl)c3)n1C)CCCC2NC(=O)OCc1ncn(C)n1 (single isomer, unassigned) [Compound 92, (1-Methyl-1H-1,2,4-triazol-3-yl)methyl (1-((3-chloro-4-fluorophenyl)carbamoyl)-2,3-dimethyl-4,5,6,7-tetrahydro-2H-isoindol-4-yl)carbamate] | 530

Same assay, conditions: read-out: DE-19 bDNA EC50; HepDE19 cells, Tet-free medium, 7 day-incubation, rcDNA measured by Quantigene 2.0 bDNA assay, top concentration 25 μM

Row | SMILES | EC50 [nM]
19 | CC#CCOC(=O)NC1CCc2c1cn(C)c2C(=O)Nc1ccc(F)c(Cl)c1 (single isomer, unassigned) [Compound 111, But-2-yn-1-yl (1-((3-chloro-4-fluorophenyl)carbamoyl)-2-methyl-2,4,5,6-tetrahydrocyclopenta[c]pyrrol-4-yl)carbamate] | 60
20 | CCC#CCOC(=O)NC1CCc2c1cn(C)c2C(=O)Nc1ccc(F)c(Cl)c1 (single isomer, unassigned) [Compound 113, Pent-2-yn-1-yl(1-((3-chloro-4-fluorophenyl)carbamoyl)-2-methyl-2,4,5,6-tetrahydrocyclopenta[c]pyrrol-4-yl)carbamate] | 120
21 | COC(=O)NC1CCc2c1cn(C)c2C(=O)Nc1ccc(F)c(Cl)c1 (single isomer, unassigned) [Compound 4, Methyl 1-(3-chloro-4-fluorophenylcarbamoyl)-2-methyl-2,4,5,6-tetrahydrocyclopenta[c] pyrrol-4-ylcarbamate] | 50
22 | COC(=O)NC1CCn2c(C(=O)Nc3ccc(F)c(Cl)c3)ccc21 (single isomer, unassigned) [Compound 39, Methyl (5-((3-chloro-4-fluorophenyl)carbamoyl)-2,3-dihydro-1H-pyrrolizin-1-yl)carbamate] | 15000

Reference: patent publication US11566002B2, “Substituted tetrahydrocyclopenta[C]pyrroles, substituted dihydropyrrolizines, analogues thereof, and methods using same” (priority 2018, dated 2023)
